Where only a bound is given, the exact number is not on record here.

The IC50 is the midpoint of a concentration-inhibition curve.

Test [1] addresses NAMPT (human, recombinant, C-terminally His-tagged) (Homo sapiens, UniProt P43490). Briefly: Time-Resolved Fluorescence Resonance Energy Transfer (TR-FRET) Binding Assay of NAMPT. The following applies: without substrates; 6.8 nM NAMPT, 200 nM probe, 3 hours equilibration. The procedure, abridged:
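A TR-FRET probe-displacement assay used 6.8 nM His-tagged recombinant human NAMPT, 200 nM Oregon Green 488-labelled nicotinamide-competitive probe and 1 nM Tb-anti-His antibody. Buffer was HEPES pH 7.5 with NaCl, MgCl2, DTT and glycerol, plus 2% DMSO, equilibrated 3 h at room temperature. Em520/Em495 ratios, normalized to controls, gave IC50 by four-parameter logistic fit.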
A general note: TR-FRET usually uses a lanthanide donor and a delayed reading to cut background.

In another test the target is NAMPT (Homo sapiens, UniProt P43490). Put plainly: TR-FRET Binding Assay of NAMPT with PRPP. To be noted: with 200 μM PRPP and 2.5 mM ATP; 2 nM NAMPT, 2 nM probe, 16 hours equilibration. The procedure, abridged: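 Human NAMPT (2 nM) with 2 nM probe and 1 nM Tb-anti-His antibody, plus 200 μM PRPP and 2.5 mM ATP, 2% DMSO. TR-FRET read after 16 h equilibration, permitting possible enzymatic modification of test compounds; data processing as for the substrate-free format.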
Sequence of NAMPT (P43490 whole entry): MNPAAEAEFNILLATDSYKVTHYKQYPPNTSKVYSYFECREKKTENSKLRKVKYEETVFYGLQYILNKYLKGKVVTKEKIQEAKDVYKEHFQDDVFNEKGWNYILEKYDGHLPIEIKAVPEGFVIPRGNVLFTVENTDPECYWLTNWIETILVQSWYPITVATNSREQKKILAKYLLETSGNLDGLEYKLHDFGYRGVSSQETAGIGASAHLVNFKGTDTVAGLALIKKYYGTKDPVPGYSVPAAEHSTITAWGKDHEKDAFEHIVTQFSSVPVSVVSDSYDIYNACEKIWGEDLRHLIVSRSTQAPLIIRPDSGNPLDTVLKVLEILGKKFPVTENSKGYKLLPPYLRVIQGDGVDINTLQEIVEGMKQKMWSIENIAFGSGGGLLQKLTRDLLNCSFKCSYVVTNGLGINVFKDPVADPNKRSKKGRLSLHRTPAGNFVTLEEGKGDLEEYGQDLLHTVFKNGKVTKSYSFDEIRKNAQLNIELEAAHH

The next test relates to PC3 cells. Briefly: NAMPT Cell Proliferation Assay. The test is classed as cell-based. The following applies: Homo sapiens, PC-3, 120 h, 5 days incubation, cell viability by Cell Titer Glo. The procedure, abridged:
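Proliferation of PC3 cells treated 5 days with a 10-fold compound series (top 10 μM) was quantified by Cell Titer Glo luminescence; IC50s were fitted from percent inhibition.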

Sequence of NAMPT (human, recombinant, C-terminally His-tagged) (P43490 whole entry): as above

Turning to `CC(C)OC(=O)N1CCC(c2ccc(C(=O)NCc3ccn4ccnc4c3)s2)CC1` [Example 570, propan-2-yl-4-{5-[(imidazo[1,2-a]pyridin-7-ylmethyl)carbamoyl]thiophen-2-yl}piperidine-1-carboxylate], the 50% inhibitory concentration (IC50) worked out at 70.4 nM in test [1], 0.751 nM on NAMPT and 7.35 nM in the test on PC3 cells.

Consider `CC(C)COC(=O)N1CCC(c2ccc(C(=O)NCc3ccn4ccnc4c3)s2)CC1` [Example 571, 2-methylpropyl 4-{5-[(imidazo[1,2-a]pyridin-7-ylmethyl)carbamoyl]thiophen-2-yl}piperidine-1-carboxylate], for which the IC50 worked out at 41.7 nM in test [1], 0.494 nM at NAMPT and 22.9 nM in the test on PC3 cells.

For the compound `O=C(NCc1ccn2ccnc2c1)c1ccc(C2CCN(C(=O)CC(F)(F)F)CC2)s1` [Example 572, N-(imidazo[1,2-a]pyridin-7-ylmethyl)-5-[1-(3,3,3-trifluoropropanoyl)piperidin-4-yl]thiophene-2-carboxamide], the IC50 in test [1] was 51.6 nM; on NAMPT, 0.403 nM; in the test with PC3 cells it was 6.66 nM.

For the compound `CC(C)CS(=O)(=O)N1CCC(c2ccc(C(=O)NCc3ccn4ccnc4c3)s2)CC1` [Example 573, N-(imidazo[1,2-a]pyridin-7-ylmethyl)-5-{1-[(2-methylpropyl)sulfonyl]piperidin-4-yl}thiophene-2-carboxamide], the IC50 in test [1] came to 24.2 nM; on NAMPT it was 0.403 nM; in the test on PC3 cells it was 3.72 nM.

With `O=C(NCc1ccn2ccnc2c1)c1ccc(C2CCN(C(=O)CCC(F)(F)F)CC2)s1` [Example 574, N-(imidazo[1,2-a]pyridin-7-ylmethyl)-5-[1-(4,4,4-trifluorobutanoyl)piperidin-4-yl]thiophene-2-carboxamide], the values for the IC50 (in test [1]; at NAMPT; in the test on PC3 cells) were 97.5 nM, 0.505 nM and 5.2 nM, respectively.

Turning to `CC(C)C(=O)N1CCC(c2ccc(C(=O)NCc3ccn4c(Cl)cnc4c3)cc2)CC1` [Example 575, N-[(3-chloroimidazo[1,2-a]pyridin-7-yl)methyl]-4-[1-(2-methylpropanoyl)piperidin-4-yl]benzamide], the IC50 in test [1] was 3250 nM; at NAMPT, 10.8 nM; in the test on PC3 cells it was more than 10000 nM.

For `CC1(Cn2cc(-c3ccc(C(=O)NCc4ccn5ccnc5c4)s3)cn2)CCOCC1` [Example 576, N-(imidazo[1,2-a]pyridin-7-ylmethyl)-5-{1-[(4-methyltetrahydro-2H-pyran-4-yl)methyl]-1H-pyrazol-4-yl}thiophene-2-carboxamide], the figures for the IC50 (in test [1]; at NAMPT; in the test on PC3 cells) were 16 nM, 0.783 nM and 0.569 nM, respectively.

Regarding `CC(C)(C#N)Cn1cc(-c2ccc(C(=O)NCc3ccn4ccnc4c3)s2)cn1` [Example 577, 5-[1-(2-cyano-2-methylpropyl)-1H-pyrazol-4-yl]-N-(imidazo[1,2-a]pyridin-7-ylmethyl)thiophene-2-carboxamide], the IC50 in test [1] worked out at 18.9 nM; on NAMPT, 0.361 nM; with PC3 cells, 2.15 nM.

Regarding `CC(C)Cn1cc(-c2sc(C(=O)NCc3ccn4ccnc4c3)cc2Cl)cn1` [Example 578, 4-chloro-N-(imidazo[1,2-a]pyridin-7-ylmethyl)-5-[1-(2-methylpropyl)-1H-pyrazol-4-yl]thiophene-2-carboxamide], the IC50 in test [1] was 682 nM; at NAMPT it was 0.775 nM; with PC3 cells it was 4600 nM.

As to `O=C(NCc1ccn2ccnc2c1)c1cc(Cl)c(-c2cnn(C[C@H]3CCOC3)c2)s1` [Example 579, 4-chloro-N-(imidazo[1,2-a]pyridin-7-ylmethyl)-5-{1-[(3R)-tetrahydrofuran-3-ylmethyl]-1H-pyrazol-4-yl}thiophene-2-carboxamide], the half-inhibitory concentration (IC50) in test [1] amounted to 488 nM; at NAMPT, 0.634 nM; with PC3 cells it was 758 nM.

As to `CC1CC1C(=O)N1CCC(c2ccc(C(=O)NCc3ccn4ccnc4c3)cc2)C1` (stereo not drawn) [Example 580, N-(imidazo[1,2-a]pyridin-7-ylmethyl)-4-{1-[(2-methylcyclopropyl)carbonyl]pyrrolidin-3-yl}benzamide], the IC50 amounted to 1470 nM in test [1], 0.798 nM at NAMPT and 212 nM in the test on PC3 cells.

As to `O=C(NCc1ccn2ccnc2c1)c1ccc(C2CCN(C(=O)CC3CCCC3)C2)cc1` (stereo not drawn) [Example 581, 4-[1-(cyclopentylacetyl)pyrrolidin-3-yl]-N-(imidazo[1,2-a]pyridin-7-ylmethyl)benzamide], the IC50 in test [1] came out at 945 nM; on NAMPT, 1.09 nM; with PC3 cells, 81.2 nM.

On to `CCC(C)CC(=O)N1CCC(c2ccc(C(=O)NCc3ccn4ccnc4c3)cc2)C1` (stereo not drawn) [Example 582, N-(imidazo[1,2-a]pyridin-7-ylmethyl)-4-[1-(3-methylpentanoyl)pyrrolidin-3-yl]benzamide], for which the IC50 in test [1] was 711 nM; at NAMPT it was 0.911 nM; in the test with PC3 cells it was 33.2 nM.

As for `O=C(NCc1ccn2ccnc2c1)c1ccc(C2CCN(C(=O)C3CCCC3)C2)cc1` (stereo not drawn) [Example 583, 4-[1-(cyclopentylcarbonyl)pyrrolidin-3-yl]-N-(imidazo[1,2-a]pyridin-7-ylmethyl)benzamide], the IC50 amounted to 1120 nM in test [1], 0.799 nM at NAMPT and 189 nM in the test with PC3 cells.

On to `CC1(C(=O)N2CCC(c3ccc(C(=O)NCc4ccn5ccnc5c4)cc3)C2)CC1` (stereo not drawn) [Example 584, N-(imidazo[1,2-a]pyridin-7-ylmethyl)-4-{1-[(1-methylcyclopropyl)carbonyl]pyrrolidin-3-yl}benzamide], for which the figures for the IC50 (in test [1]; at NAMPT; with PC3 cells) were 811 nM, 0.756 nM and 58.7 nM, respectively.

Regarding `CC(C)(C)C(=O)N1CCC(c2ccc(C(=O)NCc3ccn4ccnc4c3)cc2)C1` (stereo not drawn) [Example 585, 4-[1-(2,2-dimethylpropanoyl)pyrrolidin-3-yl]-N-(imidazo[1,2-a]pyridin-7-ylmethyl)benzamide], the IC50 in test [1] turned out to be 641 nM; at NAMPT, 0.648 nM; with PC3 cells, 34.6 nM.

Regarding `O=C(NCc1ccn2ccnc2c1)c1ccc(C2CCN(C(=O)c3cncs3)C2)cc1` (stereo not drawn) [Example 586, N-(imidazo[1,2-a]pyridin-7-ylmethyl)-4-[1-(1,3-thiazol-5-ylcarbonyl)pyrrolidin-3-yl]benzamide], the figures for the IC50 (in test [1]; at NAMPT; with PC3 cells) were 842 nM, 1.09 nM and 301 nM, respectively.

For the compound `COc1ccccc1C(=O)N1CCC(c2ccc(C(=O)NCc3ccn4ccnc4c3)cc2)C1` (stereo not drawn) [Example 587, N-(imidazo[1,2-a]pyridin-7-ylmethyl)-4-[1-(2-methoxybenzoyl)pyrrolidin-3-yl]benzamide], the results for the IC50 (in test [1]; at NAMPT; in the test on PC3 cells) were 236 nM, 0.917 nM and 7.54 nM, respectively.

On to `O=C(NCc1ccn2ccnc2c1)c1ccc(C2CCN(C(=O)c3cscn3)C2)cc1` (stereo not drawn) [Example 588, N-(imidazo[1,2-a]pyridin-7-ylmethyl)-4-[1-(1,3-thiazol-4-ylcarbonyl)pyrrolidin-3-yl]benzamide], for which the IC50 in test [1] is 684 nM; at NAMPT it was 0.623 nM; in the test on PC3 cells, 181 nM.

`O=C(NCc1ccn2ccnc2c1)c1ccc(C2CCN(C(=O)c3ccccc3F)C2)cc1` (stereo not drawn) [Example 589, 4-[1-(2-fluorobenzoyl)pyrrolidin-3-yl]-N-(imidazo[1,2-a]pyridin-7-ylmethyl)benzamide]: the half-inhibitory concentration (IC50) in test [1] stood at 16.1 nM; at NAMPT it was 0.887 nM; with PC3 cells, 1.31 nM.

On to `O=C(NCc1ccn2ccnc2c1)c1ccc(C2CCN(C(=O)c3ccco3)C2)cc1` (stereo not drawn) [Example 590, 4-[1-(furan-2-ylcarbonyl)pyrrolidin-3-yl]-N-(imidazo[1,2-a]pyridin-7-ylmethyl)benzamide], for which the IC50 was found to be 666 nM in test [1], 0.734 nM on NAMPT and 189 nM with PC3 cells.

As for `O=C(NCc1ccn2ccnc2c1)c1ccc(C2CCN(C(=O)c3cccc(F)c3)C2)cc1` (stereo not drawn) [Example 591, 4-[1-(3-fluorobenzoyl)pyrrolidin-3-yl]-N-(imidazo[1,2-a]pyridin-7-ylmethyl)benzamide], the IC50 in test [1] was found to be 138 nM; at NAMPT, 0.761 nM; in the test with PC3 cells, 19.3 nM.

`O=C(NCc1ccn2ccnc2c1)c1ccc(C2CCN(C(=O)c3ccc(F)cc3F)C2)cc1` (stereo not drawn) [Example 592, 4-[1-(2,4-difluorobenzoyl)pyrrolidin-3-yl]-N-(imidazo[1,2-a]pyridin-7-ylmethyl)benzamide]: the values for the IC50 (in test [1]; on NAMPT; in the test with PC3 cells) were 38.8 nM, 0.603 nM and 3.75 nM, respectively.

Take `Cn1ccc(C(=O)N2CCC(c3ccc(C(=O)NCc4ccn5ccnc5c4)cc3)C2)n1` (stereo not drawn) [Example 593, N-(imidazo[1,2-a]pyridin-7-ylmethyl)-4-{1-[(1-methyl-1H-pyrazol-3-yl)carbonyl]pyrrolidin-3-yl}benzamide]: the IC50 in test [1] worked out at 767 nM; at NAMPT, 0.544 nM; in the test with PC3 cells, 677 nM.

On to `O=C(NCc1ccn2ccnc2c1)c1ccc(C2CCN(C(=O)c3ccccc3Cl)C2)cc1` (stereo not drawn) [Example 594, 4-[1-(2-chlorobenzoyl)pyrrolidin-3-yl]-N-(imidazo[1,2-a]pyridin-7-ylmethyl)benzamide], for which the values for the IC50 (in test [1]; at NAMPT; in the test with PC3 cells) were 22.7 nM, 0.682 nM and 1.11 nM, respectively.
